From US11793849B2, “Method of Chinese herbal medicine extract used for treating multiple diseases caused by drug resistant bacteria infection” (priority 2016, dated 2023)
≈ marks a conversion by molar mass, not a printed value. Read-outs that look alike come from different tables or passages of the source.

What was measured:
[1] = tested on: ATCC27853; test: MIC determination, control strain; assay type: cell-based
Protocol: Determination methods of a Minimal Inhibitory Concentration (MIC) and a Minimum Bactericidal Concentration (MBC) of a test product: the MIC and the MBC of the Pithecellobium clypearia Benth water or ethanol extract to the MDRAB are determined by a microdilution broth method.

[2] = tested on: MDRPA; test: MIC determination, microdilution broth method;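 note: broth microdilution per NCCLS recommendations, testing Pithecellobium clypearia water or ethanol extracts against multidrug-resistant Pseudomonas aeruginosa, with MIC50 and MIC90 derived statistically from individual MICs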
Protocol: Determination methods of a Minimal Inhibitory Concentration (MIC) and a Minimum Bactericidal Concentration (MBC) of a test product: the MIC and the MBC of the Pithecellobium clypearia Benth water or ethanol extract to the MDRAB are determined by a microdilution broth method. And it is operated by referring to the microdilution broth method recommended by National Committee for Clinical Laboratory Standards (NCCLS).
By determining the MIC and the MBC of the drug and making statistics of the data to obtain MIC50, MIC90, MBC50 and MBC90, the effect of the MDRA resistance of the drug is evaluated.
Test method: the MDRPA (serial No.: P1-P20) strains are tested and are evaluated with reference to the method in the first embodiment.

[3] = 20 MDRPAs, EA = 60% ethanol extract
[4] = 20 MDRPAs, EA = 95% ethanol extract
[5] = MDRPAs P1-P20, single use, EA=P. clypearia 10% ethanol extract
[6] = MDRPAs P1-P20, single use, EA=P. clypearia water extract
[7] = single use, 20 MDRPAs, section of the 10% ethanol extract
[8] = single use, 20 MDRPAs, section of the 60% ethanol extract
[9] = single use, 20 MDRPAs, section of the 95% ethanol extract

- MIC ([1]; EA=10% ethanol extract, read-out: MIC): 1 µg/mL (≈ 3.34 µM)
- MIC ([1]; EA=60% ethanol extract, read-out: MIC): 1 µg/mL (≈ 3.34 µM)
- MIC ([1]; EA=95% ethanol extract, read-out: MIC): 1 µg/mL (≈ 3.34 µM)
- MIC ([1]; EA=P. clypearia 10% ethanol extract, read-out: MIC (single use)): 4 µg/mL (≈ 13.4 µM)
- MIC ([1]; EA=P. clypearia water extract, read-out: MIC (single use)): 4 µg/mL (≈ 13.4 µM)
- MIC ([1]; EA=water extract, read-out: MIC): 1 µg/mL (≈ 3.34 µM)
- MIC ([1]; single use, EA = 60% ethanol extract, read-out: MIC): 4 µg/mL (≈ 13.4 µM)
- MIC ([1]; single use, EA = 95% ethanol extract, read-out: MIC): 4 µg/mL (≈ 13.4 µM)
- MIC50 [2, 3]: 32 µg/mL (≈ 107 µM)
- MIC90 [2, 3]: 64 µg/mL (≈ 214 µM)
- MIC Range [2, 3]: 4 to 64 µg/mL
- MIC50 [2, 4]: 32 µg/mL (≈ 107 µM)
- MIC90 [2, 4]: 64 µg/mL (≈ 214 µM)
- MIC Range [2, 4]: 4 to 64 µg/mL
- MIC50 [2, 5]: 32 µg/mL (≈ 107 µM)
- MIC90 [2, 5]: 64 µg/mL (≈ 214 µM)
- MIC Range [2, 5]: 4 to 64 µg/mL
- MIC50 [2, 6]: 32 µg/mL (≈ 107 µM)
- MIC90 [2, 6]: 64 µg/mL (≈ 214 µM)
- MIC Range [2, 6]: 4 to 64 µg/mL
- MIC50 ([2]; Pseudomonas aeruginosa): 32 µg/mL (≈ 107 µM)
- MIC90 ([2]; Pseudomonas aeruginosa): 64 µg/mL (≈ 214 µM)
- MIC ([2]; Pseudomonas aeruginosa, read-out: MIC (single use), strain P1, EA=P. clypearia 10% ethanol extract): 32 µg/mL (≈ 107 µM)
- MIC ([2]; Pseudomonas aeruginosa, read-out: MIC (single use), strain P1, EA=P. clypearia water extract): 32 µg/mL (≈ 107 µM)
- MIC ([2]; Pseudomonas aeruginosa, read-out: MIC (single use), strain P2, EA=P. clypearia 10% ethanol extract): 64 µg/mL (≈ 214 µM)
- MIC ([2]; Pseudomonas aeruginosa, read-out: MIC (single use), strain P2, EA=P. clypearia water extract): 64 µg/mL (≈ 214 µM)
- MIC ([2]; Pseudomonas aeruginosa, read-out: MIC (single use), strain P3, EA=P. clypearia 10% ethanol extract): 64 µg/mL (≈ 214 µM)
- MIC ([2]; Pseudomonas aeruginosa, read-out: MIC (single use), strain P3, EA=P. clypearia water extract): 64 µg/mL (≈ 214 µM)
- MIC ([2]; Pseudomonas aeruginosa, read-out: MIC (single use), strain P4, EA=P. clypearia 10% ethanol extract): 32 µg/mL (≈ 107 µM)
- MIC ([2]; Pseudomonas aeruginosa, read-out: MIC (single use), strain P4, EA=P. clypearia water extract): 32 µg/mL (≈ 107 µM)
- MIC ([2]; Pseudomonas aeruginosa, read-out: MIC (single use), strain P5, EA=P. clypearia 10% ethanol extract): 64 µg/mL (≈ 214 µM)
- MIC ([2]; Pseudomonas aeruginosa, read-out: MIC (single use), strain P5, EA=P. clypearia water extract): 64 µg/mL (≈ 214 µM)
- MIC ([2]; Pseudomonas aeruginosa, read-out: MIC (single use), strain P6, EA=P. clypearia 10% ethanol extract): 32 µg/mL (≈ 107 µM)
- MIC ([2]; Pseudomonas aeruginosa, read-out: MIC (single use), strain P6, EA=P. clypearia water extract): 32 µg/mL (≈ 107 µM)
- MIC ([2]; Pseudomonas aeruginosa, read-out: MIC (single use), strain P7, EA=P. clypearia 10% ethanol extract): 32 µg/mL (≈ 107 µM)
- MIC ([2]; Pseudomonas aeruginosa, read-out: MIC (single use), strain P7, EA=P. clypearia water extract): 32 µg/mL (≈ 107 µM)
- MIC ([2]; Pseudomonas aeruginosa, read-out: MIC (single use), strain P8, EA=P. clypearia 10% ethanol extract): 64 µg/mL (≈ 214 µM)
- MIC ([2]; Pseudomonas aeruginosa, read-out: MIC (single use), strain P8, EA=P. clypearia water extract): 64 µg/mL (≈ 214 µM)
- MIC ([2]; Pseudomonas aeruginosa, read-out: MIC (single use), strain P9, EA=P. clypearia 10% ethanol extract): 32 µg/mL (≈ 107 µM)
- MIC ([2]; Pseudomonas aeruginosa, read-out: MIC (single use), strain P9, EA=P. clypearia water extract): 32 µg/mL (≈ 107 µM)
- MIC ([2]; Pseudomonas aeruginosa, read-out: MIC (single use), strain P10, EA=P. clypearia 10% ethanol extract): 64 µg/mL (≈ 214 µM)
- MIC ([2]; Pseudomonas aeruginosa, read-out: MIC (single use), strain P10, EA=P. clypearia water extract): 64 µg/mL (≈ 214 µM)
- MIC ([2]; Pseudomonas aeruginosa, read-out: MIC (single use), strain P11, EA=P. clypearia 10% ethanol extract): 8 µg/mL (≈ 26.7 µM)
- MIC ([2]; Pseudomonas aeruginosa, read-out: MIC (single use), strain P11, EA=P. clypearia water extract): 8 µg/mL (≈ 26.7 µM)
- MIC ([2]; Pseudomonas aeruginosa, read-out: MIC (single use), strain P12, EA=P. clypearia 10% ethanol extract): 32 µg/mL (≈ 107 µM)
- MIC ([2]; Pseudomonas aeruginosa, read-out: MIC (single use), strain P12, EA=P. clypearia water extract): 32 µg/mL (≈ 107 µM)
- MIC ([2]; Pseudomonas aeruginosa, read-out: MIC (single use), strain P13, EA=P. clypearia 10% ethanol extract): 8 µg/mL (≈ 26.7 µM)
- MIC ([2]; Pseudomonas aeruginosa, read-out: MIC (single use), strain P13, EA=P. clypearia water extract): 8 µg/mL (≈ 26.7 µM)
- MIC ([2]; Pseudomonas aeruginosa, read-out: MIC (single use), strain P14, EA=P. clypearia 10% ethanol extract): 32 µg/mL (≈ 107 µM)
- MIC ([2]; Pseudomonas aeruginosa, read-out: MIC (single use), strain P14, EA=P. clypearia water extract): 32 µg/mL (≈ 107 µM)
- MIC ([2]; Pseudomonas aeruginosa, read-out: MIC (single use), strain P15, EA=P. clypearia 10% ethanol extract): 32 µg/mL (≈ 107 µM)
- MIC ([2]; Pseudomonas aeruginosa, read-out: MIC (single use), strain P15, EA=P. clypearia water extract): 32 µg/mL (≈ 107 µM)
- MIC ([2]; Pseudomonas aeruginosa, read-out: MIC (single use), strain P16, EA=P. clypearia 10% ethanol extract): 16 µg/mL (≈ 53.4 µM)
- MIC ([2]; Pseudomonas aeruginosa, read-out: MIC (single use), strain P16, EA=P. clypearia water extract): 16 µg/mL (≈ 53.4 µM)
- MIC ([2]; Pseudomonas aeruginosa, read-out: MIC (single use), strain P17, EA=P. clypearia 10% ethanol extract): 16 µg/mL (≈ 53.4 µM)
- MIC ([2]; Pseudomonas aeruginosa, read-out: MIC (single use), strain P17, EA=P. clypearia water extract): 16 µg/mL (≈ 53.4 µM)
- MIC ([2]; Pseudomonas aeruginosa, read-out: MIC (single use), strain P18, EA=P. clypearia 10% ethanol extract): 32 µg/mL (≈ 107 µM)
- MIC ([2]; Pseudomonas aeruginosa, read-out: MIC (single use), strain P18, EA=P. clypearia water extract): 32 µg/mL (≈ 107 µM)
- MIC ([2]; Pseudomonas aeruginosa, read-out: MIC (single use), strain P19, EA=P. clypearia 10% ethanol extract): 64 µg/mL (≈ 214 µM)
- MIC ([2]; Pseudomonas aeruginosa, read-out: MIC (single use), strain P19, EA=P. clypearia water extract): 64 µg/mL (≈ 214 µM)
- MIC ([2]; Pseudomonas aeruginosa, read-out: MIC (single use), strain P20, EA=P. clypearia 10% ethanol extract): 4 µg/mL (≈ 13.4 µM)
- MIC ([2]; Pseudomonas aeruginosa, read-out: MIC (single use), strain P20, EA=P. clypearia water extract): 4 µg/mL (≈ 13.4 µM)
- MIC50 [2, 7]: 32 µg/mL (≈ 107 µM)
- MIC90 [2, 7]: 64 µg/mL (≈ 214 µM)
- MIC50 [2, 8]: 32 µg/mL (≈ 107 µM)
- MIC90 [2, 8]: 64 µg/mL (≈ 214 µM)
- MIC50 [2, 9]: 32 µg/mL (≈ 107 µM)
- MIC90 [2, 9]: 64 µg/mL (≈ 214 µM)
SMILES: C[C@@H](O)[C@H]1C(=O)N2C(C(=O)O)=C(SCCN=CN)C[C@H]12 [IMP, imipenem]
